From patent US20050085426A1, “Acid-sensitive compounds, preparation and use thereof” (priority 2000, published 2005)

Experiments:
DNA = experiment: Ethidium bromide fluorescence test of DNA compaction and release at pH 5; assay type: physicochemical; conditions: for variation in fluorescence over time (DNA not completely compacted): 0.4 nmol lipid/μg of DNA
Text: This can be easily shown by a fluorescence test with ethidium bromide (EtBr): the absence of fluorescence reflects the absence of free DNA, which means that the DNA is compacted.
In the text which follows, the two forms Syn and Trans of the acid-sensitive compound A as prepared in example 3 were used and the non-acid-sensitive analog described in the publication WO 97/18185, and which has the formula: H2N—(CH2)3—NH—(CH2)4—NH—(CH2)3—NH—CH2—CO-Gly-N[(CH2)17—CH3]2 was used as control. This non-acid-sensitive analog is called in the text which follows “control cationic lipid”.
The DNA is brought into contact with increasing quantities of control cationic lipid or of acid-sensitive compound A Syn or Trans, by mixing an equal volume of lipid solutions of different titers with the DNA solutions. Samples of 800 μl of DNA complexes having a concentration of 10 μg/ml are thus prepared in a sodium chloride solution at 150 mM with increasing quantities of control cationic lipid or of acid-sensitive compound A Syn or Trans.
At time t=0, 200 μl of buffer having a concentration of 0.1 mol/l at pH 5 are added to these samples and the samples are stored in an oven at 37° C. The fluorescence with ethidium bromide (EtBr) is measured over time (measurement at 20° C.) using a FluoroMax-2 (Jobin Yvon-Spex), with excitation and emission wavelengths of 260 nm and 590 nm respectively. The slit widths for excitation and for emission are set at 5 nm. The fluorescence value is recorded after addition of 3 μl of ethidium bromide at 1 g/l per ml of DNA/cationic lipid or DNA/acid-sensitive compound solution (at 0.01 mg of DNA/ml).

HeLa cells = experiment: In vitro transfection of HeLa cells, luciferase activity; assay type: cell-based, human; conditions: for transfection activity: 1.0 to 10.0 nmol of lipid/μg of DNA; for effect of the presence of serum on transfection: with serum (10% FCS)
Experimental: This study was carried out at 4 different charge ratios: 1.0 or 4.0 or 6.0 or 10.0 nmol of lipid/μg of DNA. Each of these conditions was tested with and without fetal calf serum (“+ or − Serum”)
Culture of the cells: HeLa cells (American type Culture Collection (ATCC) Rockville, Md., USA) derived from a human cervical epithelium carcinoma, are cultured in the presence of a medium of the MEM (“minimum essential medium”) type with addition of 2 mM L-glutamine, 50 units/ml of penicillin, and 50 units/ml of streptomycin. The medium and the additives are obtained from Gibco/BRL life Technologies (Gaithersburg, Md., USA). The cells are cultured in flasks at 37° C. and at 5% carbon dioxide in an incubator.
Transfection: a day before the transfection, the HeLa cells are transferred into 24-well plates with a cell number of 30,000 to 50,000 per well. These dilutions represent approximately 80% confluence after 24 hours.
For the transfection, the cells are washed twice and incubated at 37° C. with 500 μl of medium with serum (10% FCS v/v) or without serum.
50 μl of complexes containing 0.5 μg of plasmid DNA are added to each well (the complexes are prepared at least 30 minutes before the addition to the well). After two hours at 37° C., the plates without serum are supplemented with 10% (v/v) of FCS (“Fetal Calf Serum”).
All the plates are placed for 36 hours at 37° C. and at 5% carbon dioxide.
Determination of the luciferase activity: Briefly, the transfected cells are washed twice with 500 μl of PBS (phosphate buffer) and then lysed with 250 μl of reagent (Promega cell culture lysis reagent, from the Luciferase Assay System kit).
An aliquot of 10 μl of supernatant of the lysate centrifuged (12,000×g) for 5 minutes at 4° C. is measured with the Wallac Victor2 luminometer (1420 Multilabel couter).
The luciferase activity is assayed by the emission of light in the presence of luciferin, of coenzyme A and of ATP for 10 seconds and expressed relative to 2000 treated cells. The luciferase activity is thus expressed as Relative Light Unit (“RLU”: “Relative light unit”) and normalized with the concentration of proteins in the sample obtained using a Pierce BCA kit (Rockford, Ill., USA).

[1] = tested on: DNA/control cationic lipid nucleolipid complexes; experiment: Size of nucleolipid particles as a function of pH and time (stability of acid-sensitive compounds); assay type: physicochemical; conditions: for sensitivity at acidic pH values: pH 4, pH 5, pH 6; for stability at physiological pH: pH 7.4
Experimental: To this effect, the variation of the size of nucleolipid complexes (identical to those used in examples 9 and 10) is measured as a function of the pH and time, for various acid-sensitive pegoylated lipids, which makes it possible to cover different ranges of sensitivity.

[2] = tested on: control cationic lipid/DNA particles; experiment: Colloidal stabilization of DNA/control cationic lipid particles, hydrodynamic diameter; assay type: physicochemical; conditions: as nonionic surfactant for nucleolipid particles
Text: In the present example, the cationic lipid used is that already used in examples 7 and 8 and described in the publication WO 97/18185 under the formula: H2N—(CH2)3—NH—(CH2)4—NH—(CH2)3—NH—CH2—CO-Gly-N[(CH2)17—CH3]2 (control cationic lipid).
Compounds C and D prepared in example 5 are used as acid-sensitive pegoylated lipids. As controls, there are used BRIJ 700 (SIGMA) and the pegoylated lipid of formula: [drawing 27] which are non-acid-sensitive analogs of compounds C and D, respectively, and which are known as nonionic surfactants (see for example the publication WO 98/34648). The two controls are used at 10 g/l in water.
(§1) All these samples have a control cationic lipid/DNA ratio of 1.5 (in nmol of lipid per μg of DNA) and contain increasing quantities of pegoylated lipid (expressed as polymer/DNA weight/weight ratio).
The measurement of the hydrodynamic diameter is made with a Coulter N4Plus apparatus using plastic cuvettes (four transparent sides) filled with 800 μl of the different solutions containing 0.01 mg of DNA/ml, the measurement being carried out at 90° in unimodal mode.

[3] = tested on: control cationic lipid/DNA nucleolipid particles; experiment: Size of nucleolipid particles as a function of time at pH 5; assay type: physicochemical; conditions: for aggregation of the particles after 4 hours: pH 5, 37° C.
Experimental: The acid-sensitive pegoylated lipid used in this example is the compound D prepared in example 5, as well as its non-acid-sensitive analog called “Analog D” in the preceding example and in the text which follows.
as §1
The size of the particles is measured as a function of time.

[4] = tested on: Balb/C mice carrying subcutaneous M109 tumors; experiment: In vivo gene transfer of DNA/cationic lipid/DOPE complexes, CAT assay
Experimental: The cationic lipid of formula: [drawing 28] and the neutral lipid DOPE (obtained from Avanti Polar Lipids, Birmingham, Ala.) where it is dissolved in chloroform and then mixed in equimolar quantities.
Appropriate quantities of compound D were dissolved in chloroform and added to the mixture. The quantities of compound D used are given in mol % of the total quantity of lipid.
The organic solvent is then evaporated under an argon stream so that a thin lipid film forms at the bottom of the tube. This film is dried under vacuum for at least 1 hour and then rehydrated with a 20 mM HEPES buffer at pH 7.4 and 5% dextrose, at 4° C. for 2 hours. The lipid suspension thus obtained is heated at 50° C. for 30 minutes, and then sonicated for 5 minutes so as to form a homogeneous suspension of liposomes of about 100 nm.
The DNA used is plasmid DNA containing the CAT gene under the control of a CMV promoter.
Equivalent volumes of liposome suspension (in appropriate concentration) are rapidly added to a DNA solution while mixing rapidly and vigorously. Overall, 1 μg of DNA forms a complex with 5 nmol of cationic lipid. The complexes formed have a diameter of approximately 100 to 240 nm.
About 6 week old female Balb/C mice are used in all the experiments. Each mouse receives a subcutaneous injection with 10^6 M109 cells in the right flank. When the tumours reach a size of about 300 mm^3, the mice receive 200 μl of DNA/lipid complexes containing 50 μg of DNA, by intravenous injection. The tissues are removed 24 hours after injection and stored at −70° C. until used.
The tissues are homogenized using a “FastPrep Cell Disrupter FP120” apparatus (Bio 101/Savant). The samples are then centrifuged at 1 000 revolutions/minute for 5 minutes. The quantity of CAT transgene expressed is determined using a standard CAT ELISA procedure (Roche, Ind.).

Row | Compound | variation in fluorescence over time (DNA not completely compacted) (DNA; pH 5, 37° C.) | transfection activity (HeLa cells) | effect of the presence of serum on transfection (HeLa cells) | sensitivity at acidic pH values [1] | stability at physiological pH [1] | colloidal stabilizing power [2] | also measured
1 | CCCCCCCCCCCCCCCCCCN(CCCCCCCCCCCCCCCCCC)C(=O)CCCOC1OCC(CNC(=O)CNCCCNCCCCNCCCN)O1 (stereo not drawn) [Compound A Syn, 4-{4-[(2-{3-[4-(3-amino-propylamino)butylamino]propyl-amino}acetylamino)methyl]-[1,3]dioxolan-2-yloxy}-N,N-dioctadecylbutyramide tetraacetate] | no significant variation in fluorescence | high transfection activity | inhibition of transfection |  |  |  | release of the DNA over time (increase in fluorescence) (DNA; pH 5, 37° C., 1.7 and 6.0 nmol lipid/μg of DNA): release the DNA over time; time of release of DNA after the addition of acid (DNA; pH 5 and 37° C.): a few hours after the addition of acid
2 | methoxy-(polyethylene glycol 5000)-(N-(2-octadecyloxy-[1,3]dioxolan-4-ylmethyl)amide [Compound C] |  |  |  | high sensitivity at acidic pH values | relatively stable at physiological pH | comparable to that of the stable nonionic surfactants | duration of stabilization of the nucleolipid particles ([1]; pH 6, 37° C.): at least 4 hours
3 | methoxy-(polyethylene glycol 5000)-N-{2-[17-(1,5-dimethylhexyl)-10,13-dimethyl-2,3,4,7,8,9,10,11,12,13,14,15,16,17-tetradecahydro-1H-cyclopenta[a]-phenanthren-3-yloxy]-[1,3]dioxolan-4-ylmethyl}amide [Compound D] |  |  |  |  |  | comparable to that of the stable nonionic surfactants | aggregation of the particles after 4 hours ([3]; pegoylated lipid/DNA ratio of 0.5): completely formed into aggregates; aggregation of the particles after 4 hours ([3]; pegoylated lipid/DNA ratio of 1): not at all or only slightly; colloidal stability of the particles at time t=0 ([3]; pH 5, t=0, regardless of the compound/DNA ratio): the same stability; increase of the gene transfer activity specific to the tumors relative to the lungs (factor) ([4]; M109 tumors versus lungs): 40; gene transfer in the tumors ([4]; M109 tumors, intravenous injection, 50 μg of DNA, 24 hours after injection, increasing quantity of pegoylated lipid): gene transfer does not appear to be affected in the tumors; transfection activity in the lungs ([4]; intravenous injection, 50 μg of DNA, tissues 24 hours after injection, increasing quantity of pegoylated lipid): the transfection activity is also inhibited in the lungs
4 | methoxy-(polyethylene glycol 5000)-N-(2-methyl-2-octadecyloxy-[1,3]dioxan-5-yl)amide [Compound E] |  |  |  | high sensitivity at acidic pH values | relatively stable at physiological pH |  | start of aggregation of the nucleolipid particles after the acidification ([1]; pH 6, 37° C.): about 1 hour
5 | CCCCCCCCCCCCCCCCCCN(CCCCCCCCCCCCCCCCCC)C(=O)CNC(=O)CNCCCNCCCCNCCCN [control cationic lipid, H2N—(CH2)3—NH—(CH2)4—NH—(CH2)3—NH—CH2—CO-Gly-N[(CH2)17—CH3]2, reference compound] | no significant variation in fluorescence | high transfection activity | inhibition of transfection |  |  |  | 
